Measured values taken from ChEMBL document CHEMBL2074510, “Defective ATP-dependent bile canalicular transport of organic anions in mutant (TR-) rats with conjugated hyperbilirubinemia” (Proc Natl Acad Sci U S A, 1990).

Biological target: ATP-binding cassette sub-family C member 2 (Rattus norvegicus, UniProt Q63120)
Test: TP_TRANSPORTER: uptake in bile canalicular membrane vesicles from Wistar/TR- rat
Assay type: functional, cell membranes, Bile canalicular membrane vesicle

Chain of ATP-binding cassette sub-family C member 2 (Q63120 whole entry): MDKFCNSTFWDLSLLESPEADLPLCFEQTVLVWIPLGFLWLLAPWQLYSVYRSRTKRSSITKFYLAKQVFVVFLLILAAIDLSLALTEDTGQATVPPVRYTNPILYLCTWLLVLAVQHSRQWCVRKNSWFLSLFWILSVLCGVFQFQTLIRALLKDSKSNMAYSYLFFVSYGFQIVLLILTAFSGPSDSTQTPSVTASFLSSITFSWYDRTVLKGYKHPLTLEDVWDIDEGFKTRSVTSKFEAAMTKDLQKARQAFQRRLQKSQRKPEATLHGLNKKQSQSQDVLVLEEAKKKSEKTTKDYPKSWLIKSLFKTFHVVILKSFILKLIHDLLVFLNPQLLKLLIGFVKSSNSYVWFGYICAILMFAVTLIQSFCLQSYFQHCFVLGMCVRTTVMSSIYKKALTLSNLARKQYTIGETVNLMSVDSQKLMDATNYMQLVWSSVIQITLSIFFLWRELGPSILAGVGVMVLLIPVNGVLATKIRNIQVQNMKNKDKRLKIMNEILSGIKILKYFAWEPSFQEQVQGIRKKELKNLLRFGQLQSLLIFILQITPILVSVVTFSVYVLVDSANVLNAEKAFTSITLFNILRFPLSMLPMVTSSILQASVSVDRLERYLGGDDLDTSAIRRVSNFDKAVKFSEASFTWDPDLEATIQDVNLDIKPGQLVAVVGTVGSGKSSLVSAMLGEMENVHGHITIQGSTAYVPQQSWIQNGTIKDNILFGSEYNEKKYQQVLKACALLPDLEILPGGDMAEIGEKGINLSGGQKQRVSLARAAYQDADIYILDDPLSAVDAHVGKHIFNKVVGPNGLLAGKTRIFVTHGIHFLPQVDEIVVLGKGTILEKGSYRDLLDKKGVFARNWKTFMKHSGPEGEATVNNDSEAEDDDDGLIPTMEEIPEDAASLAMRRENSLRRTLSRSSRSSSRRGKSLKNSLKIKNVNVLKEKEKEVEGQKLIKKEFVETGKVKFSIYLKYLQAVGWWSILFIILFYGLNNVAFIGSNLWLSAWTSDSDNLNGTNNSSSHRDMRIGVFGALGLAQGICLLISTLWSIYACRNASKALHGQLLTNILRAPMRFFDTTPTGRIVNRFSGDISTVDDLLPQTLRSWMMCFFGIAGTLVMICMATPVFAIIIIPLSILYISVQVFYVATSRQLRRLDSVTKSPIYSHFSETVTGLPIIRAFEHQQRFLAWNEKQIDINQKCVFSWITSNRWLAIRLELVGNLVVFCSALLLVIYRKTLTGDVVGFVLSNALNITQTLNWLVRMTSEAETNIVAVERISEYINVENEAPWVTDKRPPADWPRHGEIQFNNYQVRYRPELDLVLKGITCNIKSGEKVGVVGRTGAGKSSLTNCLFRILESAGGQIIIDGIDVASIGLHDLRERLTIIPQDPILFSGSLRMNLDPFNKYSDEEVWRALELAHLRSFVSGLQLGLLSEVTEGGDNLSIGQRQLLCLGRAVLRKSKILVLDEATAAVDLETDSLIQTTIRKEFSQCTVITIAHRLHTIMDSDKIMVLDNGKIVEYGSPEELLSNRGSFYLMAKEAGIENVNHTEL

Activity: substrate [+]
SMILES: N[C@@H](CCC(=O)N[C@@H](CSc1c(Br)c(Br)c2c(c1Br)C(=O)OC2(c1ccc(O)c(S(=O)(=O)O)c1)c1ccc(O)c(S(=O)(=O)O)c1)C(=O)NCC(=O)O)C(=O)O
